Consider four compounds from PMC3025922 (BMC Biology, 2010).

The subject of data set [1] is p27 protein levels in HeLa cells. The data set is described as follows: Immunoblot quantification of p27, HeLa. The data set is classed as cell-based, human. The note with it: HeLa, 24 h; SMIPs 40 μM, MG132 20 μM, bortezomib 100 nM. The protocol: (§1) Total cell lysate from cells treated with vehicle (DMSO) or compounds were obtained by incubating cells in lysis buffer (25 mM Tris-HCl pH 7.4, 150 mM NaCl, 0.5% Triton X-100, protease inhibitors) for 15 min at 4°C. The supernatant was collected by centrifugation and the amount of protein was determined with a Bio-Rad protein assay (Bio-Rad) using BSA as standard. Equal amounts of protein were subjected to SDS-PAGE (4%-20% gels, Invitrogen) and transferred to PVDF membranes. The membranes were blocked with TBST (50 mM Tris-HCl pH 7.5, 150 mM NaCl, 0.05% Tween-20) containing 5% non-fat dry milk or bovine serum albumin (BSA) for 1 h at room temperature, followed by incubation in primary antibodies 4°C overnight. Membranes were washed and incubated with secondary antibodies conjugated to HRP (Jackson ImmunoResearch Laboratories) for 1 h at room temperature. Signals were visualized using the ECL Western Blotting Substrate (Pierce Biotechnology, IL, USA) according to the manufacturer's instructions. Membranes were stripped using Restore™ Western Blot Stripping Buffer (Pierce Biotechnology). Films were scanned and quantification of the bands was performed using Image J software http://rsbweb.nih.gov/ij/.
Background: Immunoblotting shows a protein as a band on a membrane.

Data set [2] in a line: MTT cytotoxicity assay, IMR90. The data set is classed as cell-based. The note with it: human, IMR90, 0.01 - 40 μM, 72 h. (In general: Tetrazolium dyes change colour on reduction, which living cells bring about.)
Experimental: LNCaP-S14 (10,000 cells), PC3, DU145 or IMR90 cells (5000 cells) were seeded in 96-well plates and treated with increasing concentrations of the respective SMIPs for 72 h. Cell viability was assessed using the MTT cell proliferation assay (ATCC®, Middlesex, UK) according to the manufacturer's protocol. IC50 was calculated using the BioDataFit 1.02 software http://www.changbioscience.com/stat/ec50.html.
In data set [3] the test system is p21 protein levels in HeLa cells. The data set can be described thus: Immunoblot quantification of p21, HeLa. The data set is classed as cell-based, human. The note with it: HeLa, 24 h; SMIPs 40 μM, MG132 20 μM, bortezomib 100 nM. The protocol:
as §1

The subject of data set [4] is polyubiquitylated proteins in LNCaP-S14 cells. The data set is described as follows: Anti-ubiquitin immunoblot of total lysate. The data set is classed as cell-based, human. To be noted: LNCaP-S14, SMIPs 20 and 40 μM, MG132 20 μM, bortezomib 100 nM, 24 h. The protocol: as §1
The test system of data set [5] is p27 protein levels in PC3 cells. The data set is described as follows: Immunoblot quantification of p27, PC3. The data set is classed as cell-based, human. The note with it: PC3, 24 h; SMIPs 40 μM, MG132 20 μM, bortezomib 100 nM. The procedure:
as §1

The test system of another data set is LNCaP-S14 cells. The data set is described as follows: MTT cytotoxicity assay, LNCaP-S14. To be noted: Homo sapiens, 72 h, read-out: IC50 (MTT cytotoxicity).
In data set [6] the test system is p27 protein levels in LNCaP cells. The data set can be described thus: Immunoblot quantification of p27, LNCaP. The data set is classed as cell-based, human. To be noted: LNCaP, 24 h; SMIPs 40 μM, MG132 20 μM, bortezomib 100 nM. The protocol:
as §1

For data set [7], the system named is p21 protein levels in LNCaP cells. The data set can be described thus: Immunoblot quantification of p21, LNCaP. The note with it: LNCaP, 24 h; SMIPs 40 μM, MG132 20 μM. The data set is classed as cell-based, human. The procedure:
as §1

Data set [8] deals with p27 protein levels in DU145 cells. The data set is described as follows: Immunoblot quantification of p27, DU145. The data set is classed as cell-based, human. To be noted: DU145, 24 h; SMIPs 40 μM, MG132 20 μM, bortezomib 100 nM. The protocol: as §1
Data set [9] concerns p27 protein levels in IMR90 cells. The data set is described as follows: Immunoblot quantification of p27, IMR90. To be noted: IMR90, 24 h; SMIPs 40 μM, MG132 20 μM, bortezomib 100 nM. The data set is classed as cell-based, human. The procedure: as §1
Data set [10] concerns p21 protein levels in PC3 cells. The data set is described as follows: Immunoblot quantification of p21, PC3. The data set is classed as cell-based, human. The note with it: PC3, 24 h; SMIPs 40 μM, MG132 20 μM, bortezomib 100 nM. The procedure: as §1
In data set [11] the test system is p21 protein levels in DU145 cells. The data set is described as follows: Immunoblot quantification of p21, DU145. The data set is classed as cell-based, human. To be noted: DU145, 24 h; SMIPs 40 μM, MG132 20 μM, bortezomib 100 nM. The protocol: as §1
Data set [12] deals with p27 protein levels in LNCaP-S14 cells. The data set can be described thus: Immunoblot quantification of p27, LNCaP-S14. The data set is classed as cell-based, human. To be noted: LNCaP-S14, 24 h; SMIPs 40 μM, MG132 20 μM, bortezomib 100 nM. The procedure: as §1
The test system of data set [13] is p21 protein levels in IMR90 cells. The data set is described as follows: Immunoblot quantification of p21, IMR90. The data set is classed as cell-based, human. To be noted: IMR90, 24 h; SMIPs 40 μM, MG132 20 μM, bortezomib 100 nM. The protocol: as §1
The subject of data set [14] is nuclear p27 in LNCaP-S14 cells. The data set is classed as cell-based, human.

Residues, ends and D or L forms follow the SMILES beside them. *: point of attachment. Cbz = O=C(OCc1ccccc1)*

As for `CC(C)C[C@@H](C=O)NC(=O)[C@H](CC(C)C)NC(=O)[C@H](CC(C)C)NC(=O)OCc1ccccc1` [MG132, reference compound] (Cbz-Leu-Leu-Leu-aldehyde), the “p27 protein level (immunoblot, DMSO = 1.0)” value came out at 2.2 ± 0.9 in data set [1]; 2.0 ± 1.0 in data set [5]; 1.9 ± 0.1 in data set [6]; 2.4 ± 0.1 in data set [8]; 0.9 ± 0.5 in [9]; 1.5 in [12]. The IC50 in data set [2] was found to be 445 nM; in the data set with LNCaP-S14 cells, 379 nM. Also, the “p21 protein level (immunoblot, DMSO = 1.0)” value came out at 5.9 ± 1.7 in data set [3], 2.9 in data set [7], 4.1 ± 0.4 in [10] and 3.1 in data set [11]. Also, the “accumulation of polyubiquitylated proteins” value in data set [4] was “readily seen”.
Turning to `CC(C)C[C@H](NC(=O)[C@H](Cc1ccccc1)NC(=O)c1cnccn1)B(O)O` [Bortezomib, reference compound], the “p27 protein level (immunoblot, DMSO = 1.0)” value in data set [1] was found to be 1.3 ± 0.2; in data set [5], 2.5 ± 1.0; in data set [6] it was 2.1; in data set [8], 1.7 ± 0.5; in [9] it was 1.8 ± 0.0; in data set [12] it was 1.8. Moreover, the “p21 protein level (immunoblot, DMSO = 1.0)” value in data set [13] stood at 1.8 ± 0.4; in [3], 2.2 ± 0.8; in [10], 4.7 ± 1.4; in data set [11] it was 2.5 ± 0.4. In addition, the “accumulation of polyubiquitylated proteins” value in data set [4] is given as “readily seen”.
For `C/C=C(/C)C(=O)O[C@H]1C(C)=C2[C@H]([C@@H]1OC(=O)CCCCCCC)[C@@](C)(OC(C)=O)C[C@H](OC(=O)CCC)[C@@]1(O)[C@H]2OC(=O)[C@@]1(C)O` [Thapsigargin, reference compound], the values for the IC50 (in data set [2]; with LNCaP-S14 cells) were 31 nM and 7.8 nM, respectively. Also, the “hit in primary screen (increased percentage of p27 positive cells)” value in [14] (LNCaP-S14, ~5 to 35 μM, 18 h) is recorded as “identified”.
As for `CCCN1CCC(N(C(=O)c2ccc(NC(=O)C(c3ccccc3)c3ccccc3)cc2)C2CC2)CC1` [521L12], the “Z score (aver)” value in data set [14] (primary screening, nuclear p27 in LNCaP-S14 cells) came to 4.02. Besides, the Clasf result in data set [14] (primary screening, S = strong, M = medium, W = weak by Z score) is given as “M (medium (Z score 3-5))”.

The term IC50 denotes the midpoint of a concentration-inhibition curve.
